Measurements from patent publication US20150313225A1.
Like-named read-outs stand apart in the source and are kept apart here.

What was measured:
Assay type in all cases: cell-based
Alternaria solani = test: Microtest against early blight caused by Alternaria solani (Alteso); conditions: solo product; for inhibition of growth at […]: 0.063 ppm
Pyricularia oryzae = test: microbe, parasite or virus in culture; conditions: for Observed efficacy: solo product
Leptosphaeria nodorum = test: Microtest against wheat leaf spots caused by Leptosphaeria nodorum (Leptno); conditions: solo product
Septoria tritici = test: Microtest against leaf blotch on wheat caused by Septoria tritici (Septtr); conditions: solo product
Botrytis cinerea = test: Microtiterplate test against the grey mold Botrytis cinerea (Botrci); conditions: solo product
Phytophthora infestans = test: microbe, parasite or virus in culture; conditions: for Observed efficacy: solo product
[1] = Alternaria solani, 168 h, 0.001 ppm, read-out: Observed efficacy
[2] = Alternaria solani, 168 h, 0.004 ppm, read-out: Observed efficacy
[3] = Alternaria solani, 168 h, 0.016 ppm, read-out: Observed efficacy
[4] = Alternaria solani, 168 h, read-out: Observed efficacy
[5] = Botrytis cinerea, 168 h, 0.016 ppm, read-out: Observed efficacy
[6] = Botrytis cinerea, 168 h, 0.063 ppm, read-out: Observed efficacy
[7] = Zymoseptoria tritici, 168 h, read-out: Observed efficacy
[8] = Pyricularia oryzae, 168 h, read-out: Observed efficacy
[9] = Parastagonospora nodorum, 168 h, read-out: Observed efficacy
[10] = Parastagonospora nodorum, 168 h, 0.016 ppm, read-out: Observed efficacy
[11] = Botrytis cinerea, 168 h, 0.25 ppm, read-out: Observed efficacy
[12] = Botrytis cinerea, 168 h, read-out: Observed efficacy
[13] = Alternaria solani, 168 h, 4 ppm, read-out: Observed efficacy
[14] = Alternaria solani, 168 h, 16 ppm, read-out: Observed efficacy
[15] = Botrytis cinerea, 168 h, 4 ppm, read-out: Observed efficacy
[16] = Botrytis cinerea, 168 h, 16 ppm, read-out: Observed efficacy
[17] = Alternaria solani, 168 h, 63 ppm, read-out: Observed efficacy
[18] = Phytophthora infestans, 168 h, read-out: Observed efficacy

SMILES: CC1COC(Cn2cncn2)(c2ccc(Oc3ccc(Cl)cc3)cc2Cl)O1 (centres unmarked) [Difenoconazol]
- Observed efficacy (Alternaria solani; 0.004 ppm): 5
- Observed efficacy (Alternaria solani; 0.016 ppm): 5
- Observed efficacy (Pyricularia oryzae; 1 ppm): 11
- Observed efficacy (Leptosphaeria nodorum; 0.016 ppm): 29
- Observed efficacy (Septoria tritici; 0.016 ppm): 26

SMILES: Fc1ccc([C@]2(Cn3cncn3)O[C@H]2c2ccccc2Cl)cc1 [Epoxiconazol]
- Observed efficacy (Alternaria solani; 0.004 ppm): 5
- Observed efficacy (Alternaria solani; 0.016 ppm): 8
- Observed efficacy (Botrytis cinerea; 0.016 ppm): 11
- Observed efficacy (Septoria tritici; 0.016 ppm): 16

SMILES: O=c1c2cc(F)ccc2nc(-n2cncn2)n1-c1ccc(Cl)cc1Cl [Fluquinconazol]
- Observed efficacy (Phytophthora infestans; 4 ppm): 0

SMILES: CC(C)C(O)(Cn1cncn1)c1ccc(Oc2ccc(Cl)cc2)cc1Cl (centres unmarked) [I-19, 2-[2-chloro-4-(4-chlorophenoxy)phenyl]-3-methyl-1-(1,2,4-triazol-1-yl)butan-2-ol]
- inhibition of growth at 0.001 ppm (Alternaria solani; [1]): 1%
- inhibition of growth at 0.004 ppm (Alternaria solani; [2]): 0%
- inhibition of growth at 0.016 ppm (Alternaria solani; [3]): 0%
- inhibition of growth at […] (Alternaria solani; [4]): 25%
- inhibition of growth at […] (Leptosphaeria nodorum; Parastagonospora nodorum, 168 h, 0.25 ppm, read-out: Observed efficacy): 64%
- inhibition of growth at 0.016 ppm (Botrytis cinerea; [5]): 20%
- inhibition of growth at […] (Botrytis cinerea; [6]): 29%
- inhibition of growth at 1.6e-05 ppm (Septoria tritici; Zymoseptoria tritici, 168 h, 0.000016 ppm, read-out: Observed efficacy): 12%
- inhibition of growth at 0.001 ppm (Septoria tritici; [7]): 20%
- inhibition of growth at 6.3e-05 ppm (Septoria tritici; [7]): 13%

SMILES: COC(C)(Cn1cncn1)c1ccc(Oc2ccc(Cl)cc2)cc1Cl (centres unmarked) [I-20, 1-[2-[2-chloro-4-(4-chlorophenoxy)phenyl]-2-methoxy-propyl]-1,2,4-triazole]
- inhibition of growth at 0.004 ppm (Alternaria solani; [2]): 0%
- inhibition of growth at […] (Alternaria solani; [4]): 30%
- inhibition of growth at 0.016 ppm (Pyricularia oryzae; [8]): 0%
- inhibition of growth at 0.001 ppm (Leptosphaeria nodorum; [9]): 5%
- inhibition of growth at 0.004 ppm (Leptosphaeria nodorum; [9]): 10%
- inhibition of growth at 0.016 ppm (Leptosphaeria nodorum; [10]): 14%
- inhibition of growth at […] (Botrytis cinerea; [6]): 16%
- inhibition of growth at […] (Botrytis cinerea; [11]): 16%
- inhibition of growth at 1 ppm (Botrytis cinerea; [12]): 58%
- inhibition of growth at 0.001 ppm (Septoria tritici; [7]): 5%

SMILES: COCC(O)(Cn1cncn1)c1ccc(Oc2ccc(Cl)cc2)cc1Cl (centres unmarked) [I-26, 2-[2-chloro-4-(4-chlorophenoxy)phenyl]-1-methoxy-3-(1,2,4-triazol-1-yl)propan-2-ol]
- inhibition of growth at 0.001 ppm (Alternaria solani; [1]): 5%
- inhibition of growth at 0.016 ppm (Alternaria solani; [3]): 4%
- inhibition of growth at 0.016 ppm (Pyricularia oryzae; [8]): 0%
- inhibition of growth at 1 ppm (Pyricularia oryzae; [8]): 55%
- inhibition of growth at 0.001 ppm (Leptosphaeria nodorum; [9]): 9%
- inhibition of growth at 0.004 ppm (Leptosphaeria nodorum; [9]): 15%
- inhibition of growth at 0.016 ppm (Leptosphaeria nodorum; [10]): 24%
- inhibition of growth at […] (Botrytis cinerea; [6]): 44%
- inhibition of growth at 0.001 ppm (Septoria tritici; [7]): 29%
- inhibition of growth at 6.3e-05 ppm (Septoria tritici; [7]): 19%

SMILES: CCCCCCCCc1c(CC)nc2ncnn2c1N [II-1, ametoctradin, reference compound]
- Observed efficacy (Alternaria solani; 4 ppm): 5
- Observed efficacy (Alternaria solani; 16 ppm): 2
- Observed efficacy (Alternaria solani; 63 ppm): 6
- Observed efficacy (Botrytis cinerea; 16 ppm): 3
- Observed efficacy (Botrytis cinerea; 63 ppm): 4
- Observed efficacy (Phytophthora infestans; 1 ppm): 75

SMILES: CCOC(=O)C1CC(=O)C(=C(O)C2CC2)C(=O)C1 (centres unmarked) [II-3a, trinexapac-ethyl, reference compound]
- inhibition of growth at 4 ppm (Alternaria solani; [13]): 12%
- inhibition of growth at 16 ppm (Alternaria solani; [14]): 27%
- inhibition of growth at 4 ppm (Pyricularia oryzae; [8]): 5%
- inhibition of growth at 16 ppm (Pyricularia oryzae; [8]): 21%
- inhibition of growth at 63 ppm (Pyricularia oryzae; [8]): 81%
- inhibition of growth at 4 ppm (Botrytis cinerea; [15]): 7%
- inhibition of growth at 16 ppm (Botrytis cinerea; [16]): 5%
- inhibition of growth at 63 ppm (Botrytis cinerea; Botrytis cinerea, 168 h, 63 ppm, read-out: Observed efficacy): 15%
- inhibition of growth at 4 ppm (Septoria tritici; Zymoseptoria tritici, 168 h, 4 ppm, read-out: Observed efficacy): 13%

SMILES: Cn1cc(C(=O)Nc2ccc(F)cc2-c2ccc(Cl)c(Cl)c2)c(C(F)F)n1 [II-6, bixafen, reference compound]
- Observed efficacy (Alternaria solani; 0.001 ppm): 5
- Observed efficacy (Alternaria solani; 0.004 ppm): 38
- Observed efficacy (Pyricularia oryzae; 0.016 ppm): 2
- Observed efficacy (Botrytis cinerea; 0.016 ppm): 8

SMILES: O=C(Nc1ccccc1-c1ccc(Cl)cc1)c1cccnc1Cl [II-7, boscalid, reference compound]
- inhibition of growth at 0.001 ppm (Alternaria solani; [1]): 5%
- inhibition of growth at 0.004 ppm (Alternaria solani; [2]): 6%
- inhibition of growth at 16 ppm (Pyricularia oryzae; [8]): 2%
- inhibition of growth at 4 ppm (Leptosphaeria nodorum; Parastagonospora nodorum, 168 h, 4 ppm, read-out: Observed efficacy): 23%
- inhibition of growth at […] (Botrytis cinerea; [11]): 38%

SMILES: COC(=O)Nc1nc2ccccc2[nH]1 [II-8, carbendazim, reference compound]
- inhibition of growth at 4 ppm (Alternaria solani; [13]): 7%
- inhibition of growth at 16 ppm (Alternaria solani; [14]): 10%
- inhibition of growth at 63 ppm (Alternaria solani; [17]): 34%
- inhibition of growth at 0.004 ppm (Botrytis cinerea; Botrytis cinerea, 168 h, 0.004 ppm, read-out: Observed efficacy): 5%
- inhibition of growth at 0.016 ppm (Botrytis cinerea; [5]): 3%
- inhibition of growth at 16 ppm (Septoria tritici; Zymoseptoria tritici, 168 h, 16 ppm, read-out: Observed efficacy): 16%

SMILES: N#Cc1nn(-c2c(Cl)cc(C(F)(F)F)cc2Cl)c(N)c1[S+]([O-])C(F)(F)F (centres unmarked) [II-20c, fipronil, reference compound]
- inhibition of growth at 1 ppm (Alternaria solani; Alternaria solani, 168 h, 1 ppm, read-out: Observed efficacy): 6%
- inhibition of growth at 4 ppm (Alternaria solani; [13]): 2%
- inhibition of growth at 4 ppm (Pyricularia oryzae; [8]): 1%
- inhibition of growth at 16 ppm (Pyricularia oryzae; [8]): 8%
- inhibition of growth at 1 ppm (Phytophthora infestans; [18]): 4%

SMILES: N#Cc1c[nH]cc1-c1cccc2c1OC(F)(F)O2 [II-34, fludioxonil, reference compound]
- inhibition of growth at 0.016 ppm (Pyricularia oryzae; [8]): 36%

SMILES: CO/N=C(/C1=NOCCO1)c1ccccc1Oc1ncnc(Oc2ccccc2Cl)c1F [II-37, fluoxastrobin, reference compound]
- inhibition of growth at 0.016 ppm (Alternaria solani; [3]): 11%
- inhibition of growth at […] (Alternaria solani; [4]): 27%
- inhibition of growth at 0.004 ppm (Pyricularia oryzae; [8]): 3%
- inhibition of growth at 0.016 ppm (Pyricularia oryzae; [8]): 8%
- inhibition of growth at 1 ppm (Botrytis cinerea; [12]): 5%
- inhibition of growth at 4 ppm (Botrytis cinerea; [15]): 10%
- inhibition of growth at 16 ppm (Botrytis cinerea; [16]): 23%
- inhibition of growth at 0.016 ppm (Phytophthora infestans; [18]): 4%

SMILES: Cn1cc(C(=O)Nc2ccccc2-c2cc(F)c(F)c(F)c2)c(C(F)F)n1 [II-42, fluxapyroxad, reference compound]
- Observed efficacy (Alternaria solani; 0.001 ppm): 4

SMILES: CC(C)C1C2CCC1c1c(NC(=O)c3cn(C)nc3C(F)F)cccc12 (centres unmarked) [II-50, isopyrazam, reference compound]
- Observed efficacy (Alternaria solani; 0.016 ppm): 15
- Observed efficacy (Pyricularia oryzae; 0.004 ppm): 1
- Observed efficacy (Botrytis cinerea; 0.016 ppm): 6
- Observed efficacy (Phytophthora infestans; 16 ppm): 23

SMILES: Cc1ccc(C(C)NC(=O)[C@@H](NC(=O)OC(C)C)C(C)C)cc1 (some centres unmarked) [II-51, iprovalicarb, reference compound]
- Observed efficacy (Alternaria solani; 4 ppm): 1
- Observed efficacy (Alternaria solani; 16 ppm): 2
- Observed efficacy (Alternaria solani; 63 ppm): 1
- Observed efficacy (Pyricularia oryzae; 4 ppm): 0
- Observed efficacy (Leptosphaeria nodorum; 16 ppm): 19
- Observed efficacy (Botrytis cinerea; 4 ppm): 2
- Observed efficacy (Botrytis cinerea; 16 ppm): 3
- Observed efficacy (Botrytis cinerea; 63 ppm): 6

SMILES: CON=C(C(=O)OC)c1ccccc1CON=C(C)c1cccc(C(F)(F)F)c1 [II-92, trifloxystrobin, reference compound]
- inhibition of growth at 0.004 ppm (Alternaria solani; [2]): 7%
- inhibition of growth at 0.016 ppm (Alternaria solani; [3]): 11%
- inhibition of growth at 0.004 ppm (Pyricularia oryzae; [8]): 11%
- inhibition of growth at 0.016 ppm (Pyricularia oryzae; [8]): 26%
- inhibition of growth at […] (Leptosphaeria nodorum; Parastagonospora nodorum, 168 h, 0.063 ppm, read-out: Observed efficacy): 39%
- inhibition of growth at 4 ppm (Botrytis cinerea; [15]): 2%
- inhibition of growth at 16 ppm (Botrytis cinerea; [16]): 6%

SMILES: CC1(C)CCC(Cc2ccc(Cl)cc2)C1(O)Cn1cncn1 (centres unmarked) [Metconazol]
- Observed efficacy (Alternaria solani; 0.016 ppm): 17
- Observed efficacy (Pyricularia oryzae; 1 ppm): 58
- Observed efficacy (Phytophthora infestans; 0.004 ppm): 2
- Observed efficacy (Septoria tritici; 0.016 ppm): 24

SMILES: CCN(Cc1ccc(Cl)nc1)/C(=C/[N+](=O)[O-])NC [Nitenpyram]
- inhibition of growth at 4 ppm (Alternaria solani; [13]): 2%
- inhibition of growth at 16 ppm (Alternaria solani; [14]): 2%
- inhibition of growth at 63 ppm (Alternaria solani; [17]): 8%
- inhibition of growth at 4 ppm (Pyricularia oryzae; [8]): 1%
- inhibition of growth at 16 ppm (Pyricularia oryzae; [8]): 0%
- inhibition of growth at 63 ppm (Pyricularia oryzae; [8]): 3%
- inhibition of growth at 63 ppm (Leptosphaeria nodorum; Parastagonospora nodorum, 168 h, 63 ppm, read-out: Observed efficacy): 23%
- inhibition of growth at 63 ppm (Septoria tritici; Zymoseptoria tritici, 168 h, 63 ppm, read-out: Observed efficacy): 10%

SMILES: CCC(=O)C1=C([O-])CC(C(=O)[O-])CC1=O.[Ca+2] (centres unmarked) [Prohexadion-ca]
- Observed efficacy (Alternaria solani; 4 ppm): 6
- Observed efficacy (Alternaria solani; 16 ppm): 2
- Observed efficacy (Pyricularia oryzae; 4 ppm): 2
- Observed efficacy (Pyricularia oryzae; 16 ppm): 2
- Observed efficacy (Pyricularia oryzae; 63 ppm): 3
- Observed efficacy (Botrytis cinerea; 4 ppm): 10
- Observed efficacy (Botrytis cinerea; 16 ppm): 5
- Observed efficacy (Botrytis cinerea; 63 ppm): 4
- Observed efficacy (Septoria tritici; 63 ppm): 15

SMILES: CC(C)(C)C(O)(CCc1ccc(Cl)cc1)Cn1cncn1 (centres unmarked) [Tebuconazol]
- Observed efficacy (Alternaria solani; 0.016 ppm): 8
- Observed efficacy (Botrytis cinerea; 0.016 ppm): 9
- Observed efficacy (Phytophthora infestans; 0.016 ppm): 1
- Observed efficacy (Septoria tritici; 0.016 ppm): 5

SMILES: CC1(C)CC/C(=C\c2ccc(Cl)cc2)C1(O)Cn1cncn1 (centres unmarked) [Triticonazol]
- Observed efficacy (Pyricularia oryzae; 1 ppm): 1
- Observed efficacy (Pyricularia oryzae; 4 ppm): 59
